The values below come from US20020055495A1, “Two-component anti-emetic composition” (priority 2000, published 2002).

One data set concerns nausea and emesis. Conditions: cited from earlier work.
A further data set addresses dopamine D2 receptor (Homo sapiens, UniProt P14416). The experiment in a line: dopamine D2 receptor binding, metoclopramide alone and with dexamethasone added. The method, then: Metoclopramide is an inhibitor of the dopamine D2 receptor which negatively effects motor function through D2 blockade causing extrapyramidal signs and symptoms (EPS). The effect of the addition of a steroid, such as dexamethasone, on metoclopramide's binding affinity at the dopamine D2 receptor is studied. […] Dexamethasone is then added in relative concentrations based on weight to achieve the following results: […]

Another data set relates to male Spargue-Dawley rats. The experiment in a line: locomotor depressant effect in rats (center distance traveled, Digiscan activity monitors). In kind it is in vivo, rat. Conditions: metaclopramide 4 mg/kg s.c., rats pretreated with saline, 30 minutes recording. The method, then: In this example, the effect of the addition of a steroid, such as dexamethasone, on metoclopramide's locomotor depressant effects is studied. Forty-eight male Spargue-Dawley rats (250-350 g) are used for this experiment. The rats are housed in pairs and allowed free access to food and water and are not handled except for cage changes and weighing prior to testing. All experimental procedures are performed during the rat's nocturnal cycle, in dimly lit behavior rooms, except that the rats are moved to adjacent behavior rooms 30 minutes prior to testing. Eight rats are tested at a time, four rats from each condition are tested together and groups are randomly chosen to control for order sequence effects. The locomotor experiments are carried out in clear, acrylic 41×41×30 cm test chambers inside Ominitech Digiscan activity monitors (Accuscan, Inc.). Each monitor uses two arrays of infrared photocell beams (8×8 photocells, model RXYZCM-8) to detect several parameters of the rat's movement both horizontally and vertically. Data is collected in 5-min bins during testing. Dexamethasone (Sigma) is dissolved in deionized water at concentrations of 0.16, 0.4, 0.8, and 4 mg/ml. […] Each rat is then immediately placed into a locomotor testing box and the data is recorded for 30 minutes (5-min bins). The data is analyzed with a one way ANOVA for the dependent variable, center distance traveled. […]

The conditions of data set [1]: cited from earlier work.

Like-named read-outs stand apart in the source and are kept apart here.

Chain of dopamine D2 receptor (P14416 whole entry, species assumed): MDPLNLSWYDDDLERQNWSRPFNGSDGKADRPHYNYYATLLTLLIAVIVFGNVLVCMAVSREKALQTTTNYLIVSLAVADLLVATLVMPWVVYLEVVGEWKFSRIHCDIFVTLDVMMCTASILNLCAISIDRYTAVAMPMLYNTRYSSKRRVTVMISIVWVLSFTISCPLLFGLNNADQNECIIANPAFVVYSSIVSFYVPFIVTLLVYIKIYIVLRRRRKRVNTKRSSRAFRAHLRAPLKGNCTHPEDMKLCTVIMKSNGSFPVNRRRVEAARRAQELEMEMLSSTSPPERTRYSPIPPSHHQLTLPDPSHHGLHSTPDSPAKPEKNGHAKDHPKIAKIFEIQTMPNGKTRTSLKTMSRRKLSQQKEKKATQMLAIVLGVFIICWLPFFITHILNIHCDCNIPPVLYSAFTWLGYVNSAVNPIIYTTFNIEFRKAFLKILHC

For the molecule `CN1C2CCCC1CC(NC(=O)c1nn(C)c3ccccc13)C2` (stereo not shown) [oral granisetron, granisetron], in the data set with nausea and emesis (Heron et al. 1994, Chevallier 1993, cisplatin-induced emesis), the anti-emetic efficacy entry is “superior to MTC”.
Turning to `Cc1nccn1CC1CCc2c(c3ccccc3n2C)C1=O` (stereo not shown) [ondansetron], in the data set with nausea and emesis (Soukop et al. 1992, repeated chemotherapy for breast cancer), the anti-emetic efficacy entry was “significantly superior than MTC”.
As to `CCN(CC)CCNC(=O)c1cc(Cl)c(N)cc1OC` [metoclopramide], at dopamine D2 receptor (MTC 8.6 nM, alone or with DEX (0.7-17.2 nM) added at the stated DEX:MTC weight ratio), the “% Inhibition D2 Binding” value is reported as 50%. In addition, the IC50 on dopamine D2 receptor (metoclopramide alone, read-out: IC50 (the concentration that inhibits 50% of dopamine D2 binding)) was 8.6 nM. The “center distance traveled (locomotor depressant effect)” value in the data set on male Spargue-Dawley rats is on record as “significantly reduces”. In addition, the “solubility in aqueous solution” value in data set [1] (acid addition salt form) is “freely soluble in aqueous solution”. Further, the solubility in water entry in data set [1] (free base form) is on record as “quite water insoluble”.
